Values of other authors as cited in patent US11045513B2, “Association of dry extracts of Vicia faba, Uncaria rhyncophylla and liquorice root together with coenzyme Q10 for use as coadjuvant, for improving the quality of life in subjects suffering from movement disorders” (CRISTALFARMA S.R.L., priority 2018, dated 2021).

Biological target: dopamine D3 receptor (DRD3) (Homo sapiens, UniProt P35462)
Sequence (P35462 whole entry): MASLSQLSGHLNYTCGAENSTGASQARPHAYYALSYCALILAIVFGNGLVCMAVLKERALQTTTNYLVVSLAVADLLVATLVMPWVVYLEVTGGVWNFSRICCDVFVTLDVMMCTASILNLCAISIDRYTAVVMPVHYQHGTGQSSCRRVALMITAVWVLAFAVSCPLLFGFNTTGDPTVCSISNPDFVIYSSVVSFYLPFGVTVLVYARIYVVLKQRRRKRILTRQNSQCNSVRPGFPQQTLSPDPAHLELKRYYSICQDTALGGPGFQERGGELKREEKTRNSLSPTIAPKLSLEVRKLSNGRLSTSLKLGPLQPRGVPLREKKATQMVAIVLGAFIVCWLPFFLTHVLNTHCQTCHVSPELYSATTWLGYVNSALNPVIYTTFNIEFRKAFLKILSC

Compound: CC1(C)[C@@H](O)CC[C@]2(C)[C@H]3C(=O)C=C4[C@@H]5C[C@@](C)(C(=O)O)CC[C@]5(C)CC[C@@]4(C)[C@]3(C)CC[C@@H]12 [glycyrrhetinic acid]
- binding affinity for the dopamine D3 receptor (DRD3): strong binding affinity
